Source: ChEMBL document CHEMBL5137079, “Structure-Based Design of Xanthine-Benzimidazole Derivatives as Novel and Potent Tryptophan Hydroxylase Inhibitors” (J Med Chem, 2022)
Values after ≈ are worked out from the molar mass of the structure shown.

Columns and labels:
[1] = Solubility of the compound in simulated intestinal fluid at upto 200 uM by HPLC-UV analysis; assay type: physicochemical
[2] = Solubility of the compound in PBS at pH 7.4 at upto 200 uM by HPLC-UV analysis; assay type: physicochemical
[3] = Solubility of the compound in simulated gastric fluid at upto 200 uM by HPLC-UV analysis; assay type: physicochemical
[4] = Metabolic stability in human hepatocytes assessed as half life; assay type: ADME, cell-based, Hepatocyte
[5] = Metabolic stability in rat hepatocytes assessed as half life; assay type: ADME, cell-based, Hepatocyte
[6] = Metabolic stability in rat hepatocytes assessed as intrinsic clearance; assay type: ADME, cell-based, Hepatocyte; conditions: read-out: CLH
[7] = Metabolic stability in human hepatocytes assessed as intrinsic clearance; assay type: ADME, cell-based, Hepatocyte; conditions: read-out: CLH
[8] = AUCinfinity in ICR mouse plasma at 50 mg/kg, po administered as single dose measured for 1440 mins by LC-MS/MS analysis; assay type: ADME, organism-based; design: time 1440 min, dose 50 mg/kg, route po
[9] = AUCinfinity in ICR mouse brain at 50 mg/kg, po administered as single dose measured for 1440 mins by LC-MS/MS analysis; assay type: ADME, organism-based; design: time 1440 min, dose 50 mg/kg, route po

| solubility [1] [µM] | solubility [2] [µM] | solubility [3] [µM] | half-life [4] [h] | half-life [5] [h] | CLint scaled [6] [mL/min/kg] | CLint scaled [7] [mL/min/kg] | AUC(0-inf) [8] [ng·h/mL] | AUC(0-inf) [9] [ng·h/mL] | SMILES |
| --- | --- | --- | --- | --- | --- | --- | --- | --- | --- |
| 158 (≈ 63.2 µg/mL) | 181 (≈ 72.6 µg/mL) | 162 (≈ 64.8 µg/mL) | 0.2 | 1 |  |  |  |  | CCn1c(=O)[nH]c(=O)c2c1nc(Cc1nc3ccccc3[nH]1)n2Cc1ccccc1 |
| 168 (≈ 69.2 µg/mL) | 167 (≈ 69 µg/mL) | 180 (≈ 74.1 µg/mL) | 0.1 | 0.583 |  |  |  |  | O=c1[nH]c(=O)n(C2CC2)c2nc(Cc3nc4ccccc4[nH]3)n(Cc3ccccc3)c12 |
| 150 (≈ 65 µg/mL) | 11.8 (≈ 5.1 µg/mL) | 173 (≈ 74.8 µg/mL) | 0.0667 | 0.0833 |  |  |  |  | CCCn1c(=O)[nH]c(=O)c2c1nc(Sc1nc3ccccc3[nH]1)n2Cc1ccccc1 |
| 176 (≈ 73.5 µg/mL) | 5.3 (≈ 2.22 µg/mL) | 195 (≈ 81.5 µg/mL) | 0.0833 | 0.167 |  |  |  |  | CCn1c(=O)[nH]c(=O)c2c1nc(Sc1nc3ccccc3[nH]1)n2Cc1ccccc1 |
| 116 (≈ 63.4 µg/mL) | 172 (≈ 94.2 µg/mL) | > 200 | > 1 | > 1 | < 115 | < 115 |  |  | Cn1c(=O)[nH]c(=O)c2c1nc(Sc1nc3cc(NC(=O)CC[C@H](N)C(=O)O)ccc3[nH]1)n2Cc1ccccc1 |
| 159 (≈ 68.5 µg/mL) | > 200 | 189 (≈ 81.3 µg/mL) | > 1 | > 1 | < 115 | < 115 |  |  | CCCn1c(=O)[nH]c(=O)c2c1nc(Cc1nc3cc(O)ccc3[nH]1)n2Cc1ccccc1 |

More lines, now with the values behind:

| SMILES | solubility [1] [µM] | solubility [2] [µM] | solubility [3] [µM] | half-life [4] [h] | half-life [5] [h] | CLint scaled [6] [mL/min/kg] | CLint scaled [7] [mL/min/kg] | AUC(0-inf) [8] [ng·h/mL] | AUC(0-inf) [9] [ng·h/mL] |
| --- | --- | --- | --- | --- | --- | --- | --- | --- | --- |
| O=c1[nH]c(=O)n(C2CC2)c2nc(Cc3nc4ccc(O)cc4[nH]3)n(Cc3ccccc3)c12 | 185 (≈ 79.1 µg/mL) | 171 (≈ 73.4 µg/mL) | 165 (≈ 70.6 µg/mL) | > 1 | > 1 | < 115 | < 115 |  |  |
| O=c1[nH]c(=O)n(C2CC2)c2nc(Cc3nc4ccc(F)cc4[nH]3)n(Cc3ccccc3)c12 | 154 (≈ 66.4 µg/mL) | > 200 | 198 (≈ 85.4 µg/mL) | 0.533 | > 1 | < 115 |  |  |  |
| COC(=O)c1ccc2nc(Cc3nc4c(c(=O)[nH]c(=O)n4C4CC4)n3Cc3ccccc3)[nH]c2c1 | 195 (≈ 91.8 µg/mL) | 197 (≈ 92.8 µg/mL) | 198 (≈ 93.2 µg/mL) | > 1 | > 1 | < 115 | < 115 |  |  |
| N#Cc1ccc2nc(Cc3nc4c(c(=O)[nH]c(=O)n4C4CC4)n3Cc3ccccc3)[nH]c2c1 | 196 (≈ 85.6 µg/mL) | 154 (≈ 67.2 µg/mL) | 196 (≈ 85.8 µg/mL) | > 1 | > 1 | < 115 | < 115 |  |  |
| CCn1c(=O)[nH]c(=O)c2c1nc(Cc1nc3cc4c(cc3[nH]1)OCO4)n2Cc1ccccc1 | 166 (≈ 73.8 µg/mL) | 186 (≈ 82.8 µg/mL) | 191 (≈ 84.8 µg/mL) | > 1 | 1 |  | < 115 | 7450 | 195 |
| O=c1[nH]c(=O)n(C2CC2)c2nc(Cc3nc4ccc(OCCO)cc4[nH]3)n(Cc3ccccc3)c12 | 189 (≈ 89.2 µg/mL) | 186 (≈ 87.7 µg/mL) | 186 (≈ 87.9 µg/mL) | > 1 | > 1 | < 115 | < 115 |  |  |
| O=c1[nH]c(=O)n(C2CC2)c2nc(Cc3nc4cc5c(cc4[nH]3)OCO5)n(Cc3ccccc3)c12 | 191 (≈ 87.3 µg/mL) | 22.9 (≈ 10.5 µg/mL) | 193 (≈ 87.9 µg/mL) | > 1 | > 1 | < 115 | < 115 |  |  |
| COc1ccc2nc(Cc3nc4c(c(=O)[nH]c(=O)n4C4CC4)n3Cc3ccccc3)[nH]c2c1 | 195 (≈ 86.3 µg/mL) | 197 (≈ 87.1 µg/mL) | 162 (≈ 71.6 µg/mL) | 0.1 | > 1 | < 115 |  |  |  |
